Test results published in PubChem BioAssay AID330 (DTP/NCI, 2004).
“And” between values parts separate entries of the source, which are not always exact repeats. Equal entries are not always repeated. Toxic doses and inconclusive results are not listed.

Tested on: P388 leukemia ip, CD2F1 mice, survival T/C
Test: NCI In Vivo Anticancer Drug Screen. Data for tumor model P388 Leukemia (intraperitoneal) in CD2F1 (CDF1) mice
Conditions: endpoint: median survival time, higher = longer survival
Procedure, shortened: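 Mice carrying the transplanted tumor received test compound or vehicle. Survival was recorded in each group, and the value is the treated-group measurement divided by that of the vehicle-treated control group.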

[1] = dose: 50.0 mg/kg/injection, schedule: Q01DX005 (ip), vehicle: saline with Tween-80
[2] = dose: 100.0 mg/kg/injection, schedule: Q01DX005 (ip), vehicle: saline with Tween-80
[3] = dose: 200.0 mg/kg/injection, schedule: Q01DX005 (ip), vehicle: saline with Tween-80
[4] = dose: 50.0 mg/kg/injection, schedule: Q01DX005 (ip), vehicle: Klucel (hydroxypropylcellulose) (HPC)

Oc1ccc(C(O)CNCCCCCCNCC(O)c2ccc(O)c(O)c2)cc1O (configuration not stated)
T/C (dose: 33.0 mg/kg/injection, schedule: Q01DX009 (ip), vehicle: saline): 99 % of control and 88 % of control
T/C (dose: 50.0 mg/kg/injection, schedule: Q01DX009 (ip), vehicle: saline): 121 % of control and 87 % of control and 96 % of control
T/C (dose: 75.0 mg/kg/injection, schedule: Q01DX009 (ip), vehicle: saline): 96 % of control

OCCN1C(c2ccccc2)=CN2C=CSC21 (configuration not stated)
T/C (dose: 100.0 mg/kg/injection, schedule: Q04DX002 (ip), vehicle: saline with Tween-80): 97 % of control
T/C (dose: 200.0 mg/kg/injection, schedule: Q04DX002 (ip), vehicle: saline with Tween-80): 94 % of control
T/C (dose: 400.0 mg/kg/injection, schedule: Q04DX002 (ip), vehicle: saline with Tween-80): 97 % of control

Cc1c2ccccc2c(C)c2c1cc(F)c1ccccc12
T/C (dose: 50.0 mg/kg/injection, schedule: Q04DX003 (ip), vehicle: Klucel (hydroxypropylcellulose) (HPC)): 105 % of control
T/C (dose: 100.0 mg/kg/injection, schedule: Q04DX003 (ip), vehicle: Klucel (hydroxypropylcellulose) (HPC)): 105 % of control
T/C (dose: 200.0 mg/kg/injection, schedule: Q04DX003 (ip), vehicle: Klucel (hydroxypropylcellulose) (HPC)): 113 % of control
T/C (dose: 400.0 mg/kg/injection, schedule: Q04DX003 (ip), vehicle: Klucel (hydroxypropylcellulose) (HPC)): 117 % of control

Cn1c2ccccc2c(=O)c2cc(NC(=O)CCC(=O)Nc3ccc4c(c3)c(=O)c3ccccc3n4C)ccc21
T/C [1]: 99 % of control
T/C [2]: 97 % of control
T/C [3]: 97 % of control

COc1cc2ccc3c4cc(OC)c(OC)cc4c[n+](C)c3c2cc1O
T/C (dose: 50.0 mg/kg/injection, schedule: Q04DX009 (ip), vehicle: Klucel (hydroxypropylcellulose) (HPC)): 117 % of control
T/C (dose: 100.0 mg/kg/injection, schedule: Q04DX009 (ip), vehicle: Klucel (hydroxypropylcellulose) (HPC)): 122 % of control

Cc1ccc2nc(-c3cccc(Cl)c3)oc(=O)c2c1
T/C (dose: 50.0 mg/kg/injection, schedule: Q01DX009 (ip), vehicle: Klucel (hydroxypropylcellulose) (HPC)): 110 % of control
T/C (dose: 100.0 mg/kg/injection, schedule: Q01DX009 (ip), vehicle: Klucel (hydroxypropylcellulose) (HPC)): 102 % of control
T/C (dose: 200.0 mg/kg/injection, schedule: Q01DX009 (ip), vehicle: Klucel (hydroxypropylcellulose) (HPC)): 92 % of control

Cc1cc(-c2ccccc2)c2ccccc2c1N(CC(=O)O)S(=O)(=O)c1ccccc1
T/C (dose: 100.0 mg/kg/injection, schedule: Q04DX003 (ip), vehicle: saline with Tween-80): 100 % of control
T/C (dose: 200.0 mg/kg/injection, schedule: Q01DX009 (ip), vehicle: saline with Tween-80): 115 % of control
T/C (dose: 200.0 mg/kg/injection, schedule: Q04DX003 (ip), vehicle: saline with Tween-80): 100 % of control
T/C (dose: 400.0 mg/kg/injection, schedule: Q04DX003 (ip), vehicle: saline with Tween-80): 90 % of control

CN1c2ccccc2C(=O)Nc2cnc(Cl)nc21
T/C (dose: 25.0 mg/kg/injection, schedule: Q01DX005 (ip), vehicle: Klucel (hydroxypropylcellulose) (HPC)): 94 % of control
T/C [4]: 108 % of control

CCOC(=O)CC(=O)c1sc(SC)c(C#N)c1N
T/C [1]: 106 % of control
T/C [2]: 100 % of control
T/C [3]: 93 % of control

COC(=O)C1=C(C(=O)OC)P2(c3ccccc3)(c3ccccc3)S/C(=N\P(C)(C)=S)N2C1(c1ccccc1)c1ccccc1
T/C [4]: 98 % of control
T/C (dose: 100.0 mg/kg/injection, schedule: Q01DX005 (ip), vehicle: Klucel (hydroxypropylcellulose) (HPC)): 88 % of control
T/C (dose: 200.0 mg/kg/injection, schedule: Q01DX005 (ip), vehicle: Klucel (hydroxypropylcellulose) (HPC)): 92 % of control

[NH-]C(CCC(N)=O)C(=O)O.[NH-]C(CCC(N)=O)C(=O)O.[Ni+2] (configuration not stated)
T/C (dose: 6.25 mg/kg/injection, schedule: Q01DX005 (ip), vehicle: saline): 93 % of control
T/C (dose: 12.5 mg/kg/injection, schedule: Q01DX005 (ip), vehicle: saline): 96 % of control
